Data from article PMC11541474, “Toward New Therapeutics for Visceral Leishmaniasis: Efficacy and Mechanism of Action of Amides Inspired by Gibbilimbol B” (ACS Omega, 2024).

How the values were obtained:
[1] = system: L. (L.) infantum promastigotes; experiment: in vitro activity against promastigote forms of L. (L.) infantum; type: cell-based, Leishmania (L.) infantum; settings: for EC50: Leishmania infantum, L. (L.) infantum promastigotes, read-out: Ec50 Promastigote (μm) ± SD
Method: (§1) Evaluation of in vitro activity against promastigote and amastigote forms of L. (L.) infantum was performed as previously reported assays.[40]−[43] The CC50 and EC50 values were calculated using sigmoidal dose–response curves using Graph Pad Prism 5.0 software. One-way ANOVA testing with Tukey’s multiple comparison tests were used for evaluation of the statistical significance (p-value) of differences between the samples, which were tested in duplicate and all assays were repeated at least twice.

[2] = system: L. (L.) infantum intracellular amastigotes; experiment: ex-vivo assay using intracellular amastigotes of L. (L.) infantum; type: cell-based, Leishmania (L.) infantum; settings: for EC50: Leishmania infantum, L. (L.) infantum intracellular amastigotes, read-out: Ec50 Amastigote (μm) ± SD; for S.I. amastigote (selectivity index): CC50 against NCTC cells/EC50 against amastigotes
Method: as §1

[3] = in vitro mammalian toxicity against NCTC cells; type: cell-based; settings: 50% cytotoxic concentration, read-out: Cc50 Nctc (μm) ± SD
Method: as §1, with “mammalian toxicity” for “activity”, “NCTC cells” for “promastigote and amastigote forms of L. (L.) infantum”, “described.[40] The selectivity index was determined using the following equation: CC50 against NCTC cells/EC50 against amastigotes.[44]” for “reported assays.[40]−[43]”

[4] = system: L. (L.) infantum promastigotes; type: cell-based, Leishmania (L.) infantum
From the text: Changes in the plasma membrane integrity of Leishmania spp. can lead to cell death due to pore formation, pH imbalance, and nutrient-transport failure. Initially, the fluorescent probe Sytox Green was employed to analyze the permeability of the plasma membrane. […] Untreated parasites were used as a negative control for normalization (0% permeabilization) whereas the nonionic surfactant Triton X-100 was used for as positive control (100% permeabilization).
Figure 4 Plasma membrane permeability in L. (L.) infantum promastigotes after 4 h of treatment with compound (A) 9 (141.5 μM) or (B) 10 (110.1 μM), using the fluorescent probe Sytox Green (p < 0.0001). Negative control: untreated parasites; positive control: Triton X-100 (TX-100).
Assays for determination of plasma membrane integrity of L. (L.) infantum were conducted as previously reported.[46] Briefly, compounds 9 (141.5 μM) and 10 (110.1 μM) were added to different wells and the resulting fluorescence was measured using a fluorimetric microplate reader (FilterMax F5Multi-Mode, Molecular Devices). Triton X-100 (0.5%, v/v) and untreated parasites were used as positive negative controls, respectively.[47]

[5] = system: L. (L.) infantum promastigotes; type: cell-based, Leishmania (L.) infantum; settings: 9 at 141.5 μM, 10 at 110.1 μM, after 240 min
Method: Figure 5 Evaluation of ROS in promastigotes of L. (L.) infantum treated with compounds 9 (141.5 μM) or 10 (110.1 μM). […]
Measurements of ROS were conducted as previously reported.[48] Briefly, promastigotes were treated with compounds 9 (141.5 μM) or 10 (110.1 μM) in HBSS+Glu at 24 °C using H2DCFDA (Molecular Probes). Fluorescence was measured using a fluorimetric microplate reader (FilterMax F5Multi-Mode, Molecular Devices) with excitation and emission filters at 485 and 520 nm, respectively.[48] Untreated and treated parasites (H2O2 - 40 μM) were used as negative and positive controls, respectively.

| Compound | EC50 [1] | EC50 [2] | CC50 [3] | permeabilization of the plasma membrane (Sytox Green) [4] | activity against promastigotes (in words) [1] | S.I. amastigote (selectivity index) [2] | ROS levels compared with negative control (H2DCFDA) [5] |
| --- | --- | --- | --- | --- | --- | --- | --- |
| Triton X-100 [reference compound] |  |  |  | maximum permeabilization |  |  |  |
| CCC/C=C/CCCNC(=O)c1ccccc1 [Compound 1, (E)-N-(Oct-4-en-1-yl)benzamide] | > 100 µM | > 100 µM | > 200 µM |  | inactive |  |  |
| CCC/C=C/CCCNC(=O)c1ccc(Cl)cc1 [Compound 5, (E)-4-Chloro-N-(oct-4-en-1-yl)benzamides] | 73.3 ± 4.3 µM | > 100 µM | > 200 µM |  |  |  |  |
| [N-]=[N+]=[N-].[Na+] [Sodium azide, reference compound] |  |  |  |  |  |  | maximum production of ROS |
| CCCCCC/C=C/CCc1ccc(O)cc1 [Gibbilimbol B, gibbilimbol B] | 99.4 ± 2.1 µM | 95.1 ± 1.5 µM | > 200 µM |  |  | >2.1 |  |
| CCCCC(CC)CNC(=O)c1ccc(C(C)(C)C)cc1 (centres unmarked) [Compound 12, N-(2-Ethylhexyl)-4-(tert-butyl)benzamide] | > 150 µM | 5.1 ± 1.9 µM | > 200 µM |  | inactive | >39.2 |  |
| CCC/C=C/CCCNC(=O)c1ccc(C)cc1 [Compound 2, (E)-4-Methyl-N-(oct-4-en-1-yl)benzamide] | 66.9 ± 6.4 µM | > 100 µM | > 200 µM |  |  |  |  |
| CCC/C=C/CCCNC(=O)c1ccc(F)cc1 [Compound 4, (E)-4-Fluoro-N-(oct-4-en-1-yl)benzamide] | 67.4 ± 1.3 µM | > 100 µM | > 200 µM |  |  |  |  |
| CCC/C=C/CCCNC(=O)c1ccc(OC)cc1 [Compound 3, (E)-4-Methoxy-N-(oct-4-en-1-yl)benzamide] | > 150 µM | > 100 µM | > 200 µM |  | inactive |  |  |

Further lines, with some results ahead:

| EC50 [1] | EC50 [2] | Compound | CC50 [3] | permeabilization of the plasma membrane (Sytox Green) [4] | activity against promastigotes (in words) [1] | S.I. amastigote (selectivity index) [2] | ROS levels compared with negative control (H2DCFDA) [5] |
| --- | --- | --- | --- | --- | --- | --- | --- |
| 49.8 ± 4 µM | > 100 µM | CCC/C=C/CCCNC(=O)c1ccc([N+](=O)[O-])cc1 [Compound 7, (E)-4-Nitro-N-(oct-4-en-1-yl)benzamide] | 158 ± 37.3 µM |  |  |  |  |
| 5.1 ± 0.6 µM | 6.5 ± 3 µM | CCCCCCCCCCCCCCCCOP(=O)([O-])OCC[N+](C)(C)C [Miltefosine, miltefosine, reference compound] | 120 ± 4.2 µM |  |  | 18.4 |  |
| 64.1 ± 3.5 µM | > 100 µM | CCCCC(CC)CNC(=O)c1ccc(F)cc1 (centres unmarked) [Compound 8, N-(2-Ethylhexyl)-4-fluorobenzamide] | 156.8 ± 1 µM |  |  |  |  |
| 66.3 ± 6 µM | > 100 µM | CCCCC(CC)CNC(=O)c1ccc(C)cc1 (centres unmarked) [Compound 11, N-(2-Ethylhexyl)-4-methylbenzamide] | > 200 µM |  |  |  |  |
| 66 ± 1 µM | > 100 µM | CCC/C=C/CCCNC(=O)c1ccc(C(C)(C)C)cc1 [Compound 6, (E)-4-(tert-butyl)-N-(oct-4-en-1-yl)benzamide] | > 200 µM |  |  |  |  |
